In patent US20100215618A1, “NOVEL COMPOUNDS - 644” (Arrow Therapeutics Limited, priority 2009, published 2010):

System: HCV replicon cells Huh 9B
Format: cell-based
Conditions: Huh 9B replicon cells, 72 h, methylene blue, total cell area reduced by 50%

Structure (SMILES) | HCV TD50 Replicon [µM]
CC(C)(C)OC(=O)N[C@@H](C(=O)N1CCC[C@H]1c1ncc(-c2ccc(-c3ccc(C(=O)Nc4ccc(CN5CCS(=O)(=O)CC5)cc4)cc3)cc2)[nH]1)c1ccccc1 [Example 2, Tert-butyl N-[(1R)-2-[(2S)-2-[5-[4-[4-[[4-[(1,1-dioxo-1,4-thiazinan-4-yl)methyl]phenyl]carbamoyl]phenyl]phenyl]-1H-imidazol-2-yl]pyrrolidin-1-yl]-2-oxo-1-phenyl-ethyl]carbamate] | >25
COC(=O)N[C@H](C(=O)N1CCC[C@H]1c1ncc(-c2ccc(-c3ccc(C(=O)Nc4ccc(CN5CCS(=O)(=O)CC5)cc4)cc3)cc2)[nH]1)C(C)C [Example 3, Methyl N-[(1S)-1-[(2S)-2-[5-[4-[4-[[4-[(1,1-dioxo-1,4-thiazinan-4-yl)methyl]phenyl]carbamoyl]phenyl]phenyl]-1H-imidazol-2-yl]pyrrolidine-1-carbonyl]-2-methyl-propyl]carbamate] | >25
COC(=O)N[C@H](C(=O)N1CCC[C@H]1c1ncc(-c2ccc(-c3ccc(C(=O)Nc4ccc(CN5CCS(=O)(=O)CC5)cc4)cc3)cc2)[nH]1)C(C)(C)C [Example 5, Methyl N-[(1S)-1-[(2S)-2-[5-[4-[4-[[4-[(1,1-dioxo-1,4-thiazinan-4-yl)methyl]phenyl]carbamoyl]phenyl]phenyl]-1H-imidazol-2-yl]pyrrolidine-1-carbonyl]-2,2-dimethyl-propyl]carbamate] | 3.9
COC(=O)N[C@H](C(=O)N1CCC[C@H]1c1ncc(-c2ccc(-c3ccc(C(=O)Nc4ccc(CN5CCS(=O)(=O)CC5)cc4)cc3)cc2)[nH]1)c1ccccc1 [Example 6, Methyl N-[(1S)-2-[(2S)-2-[5-[4-[4-[[4-[(1,1-dioxo-1,4-thiazinan-4-yl)methyl]phenyl]carbamoyl]phenyl]phenyl]-1H-imidazol-2-yl]pyrrolidin-1-yl]-2-oxo-1-phenyl-ethyl]carbamate] | >25
COC(=O)N[C@@H](C(=O)N1CCC[C@H]1c1ncc(-c2ccc(-c3ccc(C(=O)Nc4ccc(CN5CCS(=O)(=O)CC5)cc4)cc3)cc2)[nH]1)c1ccccc1 [Example 7, Methyl N-[(1R)-2-[(2S)-2-[5-[4-[4-[[4-[(1,1-dioxo-1,4-thiazinan-4-yl)methyl]phenyl]carbamoyl]phenyl]phenyl]-1H-imidazol-2-yl]pyrrolidin-1-yl]-2-oxo-1-phenyl-ethyl]carbamate] | >25
CCN(CC)[C@@H](C(=O)N1CCC[C@H]1c1ncc(-c2ccc(-c3ccc(C(=O)Nc4ccc(CN5CCS(=O)(=O)CC5)cc4)cc3)cc2)[nH]1)c1ccccc1 [Example 8, 4-[4-[2-[(2S)-1-[(2R)-2-(diethylamino)-2-phenyl-acetyl]pyrrolidin-2-yl]-1H-imidazol-5-yl]phenyl]-N-[4-[(1,1-dioxo-1,4-thiazinan-4-yl)methyl]phenyl]benzamide] | >25
CN(C)[C@@H](C(=O)N1CCC[C@H]1c1ncc(-c2ccc(-c3ccc(C(=O)Nc4ccc(CN5CCS(=O)(=O)CC5)cc4)cc3)cc2)[nH]1)c1ccccc1 [Example 9, 4-[4-[2-[(2S)-1-[(2R)-2-(dimethylamino)-2-phenyl-acetyl]pyrrolidin-2-yl]-1H-imidazol-5-yl]phenyl]-N-[4-[(1,1-dioxo-1,4-thiazinan-4-yl)methyl]phenyl]benzamide] | >25
COC(=O)N[C@@H](CC(C)C)C(=O)N1CCC[C@H]1c1ncc(-c2ccc(-c3ccc(C(=O)Nc4ccc(CN5CCS(=O)(=O)CC5)cc4)cc3)cc2)[nH]1 [Example 14, Methyl N-[(1S)-1-[(2S)-2-[5-[4-[4-[[4-[(1,1-dioxo-1,4-thiazinan-4-yl)methyl]phenyl]carbamoyl]phenyl]phenyl]-1H-imidazol-2-yl]pyrrolidine-1-carbonyl]-3-methyl-butyl]carbamate] | >25
CC[C@H](C)[C@H](NC(=O)OC)C(=O)N1CCC[C@H]1c1ncc(-c2ccc(-c3ccc(C(=O)Nc4ccc(CN5CCS(=O)(=O)CC5)cc4)cc3)cc2)[nH]1 [Example 16, Methyl N-[(1S,2S)-1-[(2S)-2-[5-[4-[4-[[4-[(1,1-dioxo-1,4-thiazinan-4-yl)methyl]phenyl]carbamoyl]phenyl]phenyl]-1H-imidazol-2-yl]pyrrolidine-1-carbonyl]-2-methyl-butyl]carbamate] | >25
COC(=O)N[C@H](C(=O)N1CCOC[C@H]1c1ncc(-c2ccc(-c3ccc(C(=O)Nc4ccc(CN5CCS(=O)(=O)CC5)cc4)cc3)cc2)[nH]1)c1ccccc1 [Example 47, Methyl N-[(1S)-2-[(3R)-3-[5-[4-[4-[[4-[(1,1-dioxo-1,4-thiazinan-4-yl)methyl]phenyl]carbamoyl]phenyl]phenyl]-1H-imidazol-2-yl]morpholin-4-yl]-2-oxo-1-phenyl-ethyl]carbamate] | >25
COC(=O)N[C@H](C(=O)N1CCC[C@H]1c1ncc(-c2ccc(-c3ccc(C(=O)Nc4ccc(CN5CCS(=O)(=O)CC5)cc4)cc3)c(C)c2)[nH]1)C(C)C [Example 54, Methyl N-[(1S)-1-[(2S)-2-[5-[4-[4-[[4-[(1,1-dioxo-1,4-thiazinan-4-yl)methyl]phenyl]carbamoyl]phenyl]-3-methyl-phenyl]-1H-imidazol-2-yl]pyrrolidine-1-carbonyl]-2-methyl-propyl]carbamate] | >25
